Data from patent EP1100481B1, “PHARMACEUTICAL FORMULATIONS COMPRISING BECLOMETHASONE DIPROPIONATE FOR THE TREATMENT OF INFLAMMATORY BOWEL DISEASE” (CHIESI FARMACEUTICI S.p.A., priority 1998, dated 2000).

Experiment: Pharmacokinetic-scintigraphic study of systemic absorption
Assay type: in vivo
Details: healthy volunteers
Protocol: The disintegration behavior of the tablets was also evaluated in vivo, at the intestinal site, in a study carried out on 8 healthy volunteers. A scintigraphic technique was employed as it is suitable for evaluating the position and integrity of the tablet within the gastrointestinal tract (Steed K.P. et al. Int J Pharmaceutics 1994; 112:199-206). […] These findings confirmed that the modified-relase tablets of the invention meet the requirements considered necessary for a formulation designed for the topical treatment of inflammatory bowel disease.

- systemic absorption of unmetabolised BDP and/or of its metabolites: absence of systemic absorption
SMILES: CCC(=O)OCC(=O)[C@@]1(OC(=O)CC)[C@@H](C)C[C@H]2[C@@H]3CCC4=CC(=O)C=C[C@]4(C)[C@@]3(Cl)[C@@H](O)C[C@@]21C [BDP, beclomethasone dipropionate]
